# pIC50: −log10 of the molar value. Like-named read-outs stand apart in the source and are kept apart here.
# What was measured:
# [1] = system: HT29; assay: Cytotoxicity assay, SRB colorimetric assay; format: cell-based; conditions: Homo sapiens; for GI50: concentration that produces 50% growth inhibition; for IC (TGI): total growth inhibition (cytostatic effect)
# Source text: (§1) The aim of this assay is to evaluate the in vitro cytostatic (ability to delay or arrest tumor cell growth) or cytotoxic (ability to kill tumor cells) activity of the samples being tested.
# (§2) Evaluation of Cytotoxic Activity Using the SBR Colorimetric Assay
# (§3) A colorimetric type of assay, using sulforhodamine B (SRB) reaction has been adapted for a quantitative measurement of cell growth and viability (following the technique described by Skehan P et al. J. Natl. Cancer Inst. 1990, 82, 1107-1112).
# (§4) This form of assay employs SBS-standard 96-well cell culture microplates (Faircloth et al. Methods in Cell Science, 1988, 11(4), 201-205; Mosmann et al, Journal of Immunological. Methods, 1983, 65(1-2), 55-63). All the cell lines used in this study, derived from different types of human cancer, were obtained from the American Type Culture Collection (ATCC).
# (§5) Cells were maintained in Dulbecco's Modified Eagle Medium (DMEM) supplemented with 10% Fetal Bovine Serum (FBS), 2 mM L-glutamine, 100 U/mL penicillin and 100 U/mL streptomycin at 37° C., 5% CO2 and 98% humidity. For the experiments, cells were harvested from subconfluent cultures using trypsinization and resuspended in fresh medium before counting and plating.
# (§6) Cells were seeded in 96 well microtiter plates at 5×10^3 cells per well in aliquots of 150 μL, and allowed to attach to the plate surface for 18 hours in drug free medium. One control (untreated) plate of each cell line was fixed (as described below) and used for time zero reference value. Afterwards, test samples were added to the cultures in ten serial dilutions, in aliquots of 50 μL, ranging from 10 to 0.00262 μg/mL. After 48 hours exposure, the antitumor effect was estimated by the SRB method: Briefly, cells were washed twice with PBS, fixed for 15 min in 1% glutaraldehyde solution, rinsed twice in PBS, and stained in 0.4% SRB solution for 30 min at room temperature. Cells were then rinsed several times with 1% acetic acid solution and air-dried. SRB was then extracted in 10 mM trizma base solution and the absorbance measured in an automated spectrophotometric plate reader at 490 nm. Cell survival was expressed as percentage of control cell growth. The final effect of the sample being tested was estimated by applying the NCI algorithm (Boyd M R and Paull K D. Drug Dev. Res. 1995, 34, 91-104).
# (§7) Using the mean±SD of triplicate cultures, a dose-response curve was automatically generated using nonlinear regression analysis. Three reference parameters were calculated (NCI algorithm) by automatic interpolation: GI50=concentration that produces 50% growth inhibition; TGI=total growth inhibition (cytostatic effect) and LC50=concentration that produces 50% net cell killing (cytotoxic effect).
# [2] = system: MDA-MB-231; assay: Cytotoxicity assay, SRB colorimetric assay; format: cell-based; conditions: Homo sapiens; for GI50: concentration that produces 50% growth inhibition; for IC (TGI): total growth inhibition (cytostatic effect)
# Source text: as §1, §2, §3, §4, §5, §6, §7
# [3] = system: A549; assay: Cytotoxicity assay, SRB colorimetric assay; format: cell-based; conditions: Homo sapiens; for LC50 (50% net cell killing): read-out: LC50; for GI50: concentration that produces 50% growth inhibition; for IC (TGI): total growth inhibition (cytostatic effect)
# Source text: as §1, §2, §3, §4, §5, §6, §7
# [4] = system: breast cancer carcinoma; conditions: cited from earlier work
# [5] = system: L929 mouse fibroblast cell culture; conditions: toxicity toward L929 mouse fibroblast cell culture; cited from earlier work
# [6] = system: Saccharomyces cerevisiae; conditions: fungus Saccharomyces cerevisiae; cited from earlier work
# [7] = MDA-MB-231, 48 h, read-out: LC50
# [8] = HT-29, HT29, 48 hours exposure, concentration that produces 50% net cell killing (cytotoxic effect), read-out: LC50 (the source's name)
# [9] = MDA-MB-231, 48 hours exposure, concentration that produces 50% net cell killing (cytotoxic effect), read-out: LC50 (the source's name)
# [10] = A549, 48 hours exposure, concentration that produces 50% net cell killing (cytotoxic effect)
SMILES,"CC50 ([1]; HT-29, 48 h, read-out: LC50) [µM]","GI50 ([1]; HT-29, HT29, 48 hours exposure) [µM]","IC (TGI) ([1]; HT-29, HT29, 48 hours exposure) [µM]","CC50 [2, 7] [µM]","GI50 ([2]; MDA-MB-231, 48 hours exposure) [µM]","IC (TGI) ([2]; MDA-MB-231, 48 hours exposure) [µM]","LC50 (50% net cell killing) ([3]; A549, 48 h) [µM]","GI50 ([3]; A549, 48 hours exposure) [µM]","IC (TGI) ([3]; A549, 48 hours exposure) [µM]","CC50 [1, 8] [µM]","CC50 [2, 9] [µM]","LC50 (50% net cell killing) [3, 10] [µM]",pIC50 [4],IC50 [5] [µg/mL],MIC [6] [µg/mL]
C/C(Cl)=C\C[C@H](O)C/C=C\NC(=O)[C@@H](NC(=O)\C=C/C=C\C(C)=C\[C@H](C)c1ccccc1)C(C)(C)C [Compound 38],4.68,1.09,1.52,> 19.5,2.14,4.48,> 19.5,1.81,4.87,,,,,,
C/C(Cl)=C\C[C@@H](C/C=C\NC(=O)[C@@H](NC(=O)\C=C/C=C\C(C)=C\[C@H](C)c1ccccc1)C(C)(C)C)O[Si](C)(C)C(C)(C)C [Compound 37],,3.67,4.46,,5.26,7.01,,2.87,5.9,5.9,9.4,10.8,,,
C/C(Cl)=C\C[C@@H](C/C=C\NC(=O)[C@@H](NC(=O)\C=C/C=C\C(C)=C\Cc1ccccc1)C(C)(C)C)OC(N)=O [Compound 34],0.904,0.443,0.572,> 18.4,1.03,4.43,> 18.4,0.701,2.77,,,,,,
C/C(Cl)=C\C[C@@H](C/C=C\NC(=O)[C@@H](NC(=O)\C=C/C=C\C(C)=C\[C@H](C)c1ccccc1)C(C)(C)C)OC(N)=O [Compound 39],0.36,0.036,0.0593,> 18,0.0917,0.27,> 18,0.0557,> 18,,,,,,
C=CCCOC(=O)[C@@H](NC(=O)\C=C/C=C\C(C)=C\c1ccc(O)c(OC)c1)C(C)(C)C [Compound 36],,1.96,7.95,,1.15,2.57,,3.27,> 23.4,> 23.4,19.2,> 23.4,,,
C/C(Cl)=C\C[C@H](O)C/C=C\NC(=O)[C@@H](NC(=O)\C=C/C=C\C(C)=C\Cc1ccccc1)C(C)(C)C [Compound 33],3.81,1.1,1.82,8.01,3.01,4.81,7.41,1.58,3.41,,,,,,
COc1cc(/C=C(C)/C=C\C=C/C(=O)N[C@H](C(=O)N/C=C\C[C@H](C/C=C(\C)Cl)O[Si](C)(C)C(C)(C)C)C(C)(C)C)ccc1O[Si](C)(C)C(C)(C)C [Compound 30],,0.777,0.816,,0.764,0.974,,0.671,0.764,0.869,1.26,0.908,,,
CC(=O)O[C@H]1C(=O)[C@@]2(C)[C@H]([C@H](OC(=O)c3ccccc3)[C@]3(O)C[C@H](OC(=O)[C@H](O)[C@@H](NC(=O)c4ccccc4)c4ccccc4)C(C)=C1C3(C)C)[C@]1(OC(C)=O)CO[C@@H]1C[C@@H]2O [paclitaxel],,,,,,,,,,,,,8.68,,
C/C(Cl)=C\C[C@@H](C/C=C\NC(=O)[C@@H](NC(=O)\C=C/C=C\C(C)=C\Cc1ccccc1)C(C)(C)C)O[Si](C)(C)C(C)(C)C [Compound 32],,0.49,0.621,,0.833,1.11,,0.49,0.686,0.849,1.5,1.06,,,
"C=C/C=C\[C@H](C)[C@H](OC(N)=O)[C@@H](C)[C@H](O)[C@@H](C)C/C(C)=C\[C@H](C)[C@@H](O)[C@@H](C)/C=C\[C@@H](O)C[C@@H]1OC(=O)[C@H](C)[C@@H](O)[C@H]1C (single isomer, unassigned) [(+)-discodermolide]",,,,,,,,,,,,,8.62,,
COC(=O)CNC(=O)CCC/C=C\NC(=O)/C=C(C)/C=C/[C@H](C)[C@H](OC)[C@H](C)[C@H](/C=C/c1ccccc1)OC [crocacin D],,,,,,,,,,,,,,0.06,0.0014

# — patent US8710264B2, “Antitumoral compounds” (priority 2007, dated 2014)
